In patent publication US10307437B2, “Methods for treatment of vascular endothelial dysfunction using nicotinamide mononucleotide” (The Regents of the University of Colorado, a Body Corporate, priority 2014, dated 2019):
Entries after “also recorded” stand apart in the source; their conditions may differ.

Experiments:
[1] = tested on: carotid arteries; assay: Ex vivo incubation of isolated carotid arteries with TEMPOL, EDD to acetylcholine; set-up: species or system mice; conditions: other groups (YC, YNMN, ONMN); TEMPOL 0.1 mM, 1 hour incubation
Experimental: EDD and endothelium-independent dilation were determined ex vivo in isolated carotid arteries as previously described (Rippe C. et al. 2010, Aging Cell. 9, 304-312; Sindler A. L. et al. 2011, Aging Cell. 10, 429-437). Mice were anesthetized using isoflurane and euthanized by exsanguination via cardiac puncture. The carotid arteries were carefully excised, cannulated onto glass micropipette tips, and secured with nylon (11-0) sutures in individual myograph chambers (DMT Inc., Ann Arbor, Mich., USA) containing buffered physiological saline solutions. The arteries were pressurized to 50 mmHg at 37° C. and were allowed to equilibrate for 45 minutes before experimentation. After submaximal preconstriction with phenylephrine (2 μM), increases in luminal diameter in response to acetylcholine (ACh: 1×10^−9-1×10^−4 M; Sigma-Aldrich Corp.) with and without co-administration of the NO synthase inhibitor, L-NAME, 0.1 mM, 30 minute incubation; (Sigma-Aldrich Corp.) or the superoxide dismutase mimetic 4-Hydroxy-2,2,6,6-tetramethylpiperidine-1-oxyl (TEMPOL, 0.1 mM, 1 hour incubation; Sigma-Aldrich Corp.) were determined. Endothelium-independent dilation was determined by vasodilation in response to the NO donor sodium nitroprusside (SNP: […]-1×10^−4 M; Sigma-Aldrich Corp.).
All dose-response data are presented as percent dilation, i.e. FIGS. 1A, 1C and 2A. […]

[2] = biological target: T1, SIRT1 (Mus musculus, UniProt Q923E4); conditions: in part by reducing oxidative stress (Gano et al. 2014); cited from earlier work
T1 sequence (Q923E4 1-737): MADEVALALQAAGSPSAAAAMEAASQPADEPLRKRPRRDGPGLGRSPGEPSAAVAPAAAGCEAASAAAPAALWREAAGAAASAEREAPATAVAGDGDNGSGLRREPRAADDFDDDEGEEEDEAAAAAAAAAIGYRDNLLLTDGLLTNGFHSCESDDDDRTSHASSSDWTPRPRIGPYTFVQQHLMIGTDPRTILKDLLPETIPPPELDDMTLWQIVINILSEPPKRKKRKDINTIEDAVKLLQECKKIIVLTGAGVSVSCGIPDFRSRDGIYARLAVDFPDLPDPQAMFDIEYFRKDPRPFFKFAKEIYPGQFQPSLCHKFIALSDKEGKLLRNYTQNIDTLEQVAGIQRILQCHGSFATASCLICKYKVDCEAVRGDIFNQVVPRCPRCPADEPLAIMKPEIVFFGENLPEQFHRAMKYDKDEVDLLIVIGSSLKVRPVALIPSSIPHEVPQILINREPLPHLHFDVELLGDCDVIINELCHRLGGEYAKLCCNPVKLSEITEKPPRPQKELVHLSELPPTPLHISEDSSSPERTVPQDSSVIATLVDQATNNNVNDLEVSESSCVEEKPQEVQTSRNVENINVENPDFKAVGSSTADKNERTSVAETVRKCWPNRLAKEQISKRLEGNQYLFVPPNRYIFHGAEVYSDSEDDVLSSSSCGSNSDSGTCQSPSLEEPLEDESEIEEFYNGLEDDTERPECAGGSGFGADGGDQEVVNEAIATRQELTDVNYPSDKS

[3] = tested on: superoxide; assay: Aortic superoxide production by EPR spectroscopy; format: in vivo; conditions: young mice, NMN 8 weeks
Source text: (§1) Young (4-8 months) C57Bl/6 male mice were purchased from Charles River and old (26-28 months) C57Bl/6 male mice were obtained from the National Institute on Aging rodent colony. Mice were fed normal rodent chow ad libitum for the duration of the study. After an acclimation period of 2 weeks, the young and old mice were divided into two subgroups: control animals (YC, OC) continued on normal drinking water and the other animals (YNMN, ONMN) received nicotinamide mononucleotide (NMN; Sigma-Aldrich Corp., St. Louis, Mo., USA) supplementation in the drinking water (240 mg/kg/day) for 8 weeks. All mice were housed in an animal care facility at the University of Colorado Boulder on a 12:12 hour light-dark cycle. All animal procedures conformed to the Guide to the Care and Use of Laboratory Animals (NIH publication No. 85-23, revised 1996) and were approved by the UCB Animal Care and Use Committee.
Measurement of superoxide production in the thoracic aorta was performed using electron paramagnetic resonance (EPR) spectroscopy, as previously described (LaRocca T. J. et al. 2013, Mech Ageing Dev. 134, 314-320). […] The signal amplitude was analyzed using an MS300 X-band EPR spectrometer (Magnettech GmbH, Berlin, Germany) with the following settings: centrefield, 3350 G; sweep, 80 G; microwave modulation, 3000 mG, and microwave attenuation, 7 dB. […]

[4] = tested on: collagen type I; assay: Immunohistochemistry of aortic collagen type I; format: in vivo; conditions: old mice, NMN 8 weeks
Source text: as §1
(§2) Immunohistochemistry was used to determine aortic expression of collagen type I and elastin as previously described (Fleenor B. S. et al. 2010 J Physiol. 588, 3971-3982). […] Digital photomicrographs were obtained using a Nikon Eclipse TS100 photomicroscope, and quantification was performed with Image-J Software Version 1.0. The adventitial and medial layers for each sample were quantified together for whole vessel expression. […]

[5] = tested on: SIRT1; assay: Western blot of aortic SIRT1 expression; format: in vivo, mice; conditions: NMN 8 weeks
Source text: as §1, with “All animal procedures conformed to the Guide to the Care and Use of Laboratory Animals (NIH publication No. 85-23, revised 1996) and were approved by the UCB Animal Care and Use Committee.” left out
(§3) Aortas were used as a surrogate large elastic artery to provide sufficient tissue for analysis of protein expression by Western blot as described previously (Donato A. J. et al. 2013, J Physiol. 589, 4545-4554; Gano L. B. et al. 2014, Am J Physiol Heart Circ Physiol. 307, H1754-1763). […] Relative intensity was quantified using Image-J Software Version 1.0. […] The ratio of acetylated to total p65 was determined by running two identical Western blots. […] The ratio of acetylated to total p65 was determined for each animal and then normalized to the YC group mean.

[6] = set-up: species or system mice; conditions: mouse, in vivo
Source text: as §1
Data are presented as mean±SEM in text, figures and tables. All analyses were performed with SPSS. A one-way ANOVA (Analysis of Variance) was used to analyze morphological characteristics, maximum EDD, NO-mediated EDD, EPR spectroscopy, aPWV, elastic modulus, Western blots, and immunohistochemistry. Within-group differences in the maximal EDD dose response to acetylcholine in the absence vs. presence of TEMPOL was determined using two-factor (group×treatment) repeated-measures ANOVA. […]

[7] = tested on: C57Bl/6 male mice; assay: Ex vivo carotid artery vasodilatory responses after NMN supplementation in drinking water
[8] = tested on: nitrotyrosine; assay: Western blot of aortic nitrotyrosine abundance; format: in vivo, mice; conditions: NMN 8 weeks
Source text: as §1, with “All animal procedures conformed to the Guide to the Care and Use of Laboratory Animals (NIH publication No. 85-23, revised 1996) and were approved by the UCB Animal Care and Use Committee.” left out
as §3

[9] = biological target: T1, SIRT1; assay: SIRT1 activation by ratio of acetylated to total NFκB (p65 subunit) in aorta; format: in vivo; set-up: Aortas were used as a surrogate large elastic artery to provide sufficient tissue for analysis of protein expression by Western blot; from tissue; host or cells: mouse aorta (C57Bl/6); conditions: old mice, NMN 8 weeks
Source text: as §1, with “All animal procedures conformed to the Guide to the Care and Use of Laboratory Animals (NIH publication No. 85-23, revised 1996) and were approved by the UCB Animal Care and Use Committee.” left out
as §3

[10] = tested on: C57Bl/6 male mice; assay: In vivo aortic pulse wave velocity; conditions: young mice, NMN 240 mg/kg/day, 8 weeks
Source text: as §1, with “All animal procedures conformed to the Guide to the Care and Use of Laboratory Animals (NIH publication No. 85-23, revised 1996) and were approved by the UCB Animal Care and Use Committee.” left out
Aortic pulse wave velocity (aPWV) was measured as described previously (Sindler A. L. et al. 2011, Aging Cell. 10, 429-437; Fleenor B. S. et al. 2012b, Exp Gerontol. 47, 588-594). […] Aortic blood flow velocity was measured with two Doppler probes placed at the transverse aortic arch and abdominal aorta, respectively. Pre-ejection time, the time between the R-wave of the ECG to foot of the Doppler signal, was determined for each site. aPWV was calculated by dividing the distance between the transverse and abdominal probes by the difference in the thoracic and abdominal pre-ejection times.

[11] = tested on: elastin; assay: Immunohistochemistry of aortic elastin; format: in vivo; conditions: old mice, NMN 8 weeks
Source text: as §1, §2

CC1(C)CC(O)CC(C)(C)N1[O] [TEMPOL, 4-hydroxy-2,2,6,6-tetramethylpiperidin-1-oxyl]
carotid artery EDD in presence of TEMPOL [1]: no significant effect; also recorded: no significant improvement

O=C(Nc1ccccc1-c1cn2c(CN3CCNCC3)csc2n1)c1cnc2ccccc2n1 [SRT1720]
EDD in old mice [2]: improves

NC(=O)c1ccc[n+]([C@@H]2O[C@H](COP(=O)([O-])O)[C@@H](O)[C@H]2O)c1 [NMN, nicotinamide mononucleotide]
aortic superoxide production [3]: no significant effect
arterial collagen type I expression [4]: reversed; also recorded: reduced arterial collagen type I to levels of young mice
aortic SIRT1 protein expression ([5]; old mice): tended to increase
aortic SIRT1 protein expression ([5]; young mice): increased
body mass across the four groups [6]: no significant differences
Endothelium-independent dilation to sodium nitroprusside ([7]; young and old mice, NMN-treated vs controls): not significantly different; also recorded: did not influence
EDD and NO-mediated dilation ([7]; young mice, NMN 240 mg/kg/day in drinking water, 8 weeks): had no effect
aortic nitrotyrosine abundance ([8]; old mice): decreased; also recorded: markedly reduced
aortic nitrotyrosine abundance ([8]; young mice): no significant effect
vascular SIRT1 activity (ratio of acetylated to total p65 subunit of NFκB) [9]: restored
aortic pulse wave velocity (aPWV) [10]: no significant effect
arterial elastin expression [11]: partially increased; also recorded: increased elastin to levels not significantly different from young mice
